Earlier results as cited in paper PMC11261219 (Clinical and Molecular Hepatology, 2024).

Tests used:
HBV DNA and HBV RNA = settings: added to patients taking NUCs, versus NUCs alone
HBV = settings: after 3 years

| Compound | suppression of HBV DNA and HBV RNA (HBV DNA and HBV RNA) | functional cure, patients (HBV) |
| --- | --- | --- |
| O=C(NCc1cnc(C(F)(F)F)s1)c1ccc2c(c1)NC(=O)c1ccccc1S2(=O)=O [vebicorvir] | further suppressed HBV DNA and HBV RNA more than with NUCs alone |  |
| pegylated interferon [pegIFN] |  | approximately 11% |
